Values after ≈ are worked out from the molar mass of the structure shown.
What was measured:
[1] = system: P. falciparum D-6 clone; assay: In vitro antimalarial activity, P. falciparum D-6 clone; assay type: cell-based; conditions: Table 3, tricyclic analogs, D-6 clone
From the text: (§1) The analogs have been segregated arbitrarily here into those compounds in which the tetracyclic skeleton is intact (Table 2) and various ring-cleaved analogs (Table 3). The activities of the conventional malaria therapeutics chloroquine, mefloquine, and pyrimethamine is included for comparison.

[2] = system: P. falciparum; assay: In vitro antimalarial activity / SAR data, clone not stated; assay type: cell-based; conditions: of the activity of 12 (artemisinin); clone not stated
From the text: as §1

[3] = system: P. falciparum W-2 clone; assay: In vitro antimalarial activity, P. falciparum W-2 clone; assay type: cell-based; conditions: Table 3, tricyclic analogs, W-2 clone
From the text: as §1

[4] = Brossi et al.; cited from earlier work

C[C@H]1C(=O)O[C@@H]2OC(C)(C)OO[C@@]23CCCC[C@@H]13 (relative stereo) [compound 4582]
IC50 ([1]; Plasmodium falciparum, read-out: In vitro IC50 D-6 clone): 0.0222 µg/mL (≈ 0.0867 µM) | Relative potency (D-6 clone) [1]: 20 | activity relative to 12 [2]: about 20% | IC50 ([3]; Plasmodium falciparum, read-out: In vitro IC50 W-2 clone): 0.0381 µg/mL (≈ 0.149 µM) | Relative potency (W-2 clone) [3]: 6

CCO[C@H]1O[C@@H]2O[C@@]3(C)CC[C@H]4[C@H](C)CC[C@@H]([C@H]1C)[C@@]24OO3 [arteether]
potency relative to artemisinin (12) [4]: higher potency

From patent US5216175A, “Antimalarial analogs of artemisinin” (SRI International, priority 1990, dated 1993)
